Measured values taken from patent publication US20020028224A1, “Cosmetic compositions containing substituted amide derivatives” (Unilever Home & Personal Care USA, Division of Conopco, Inc., priority 2000, published 2002).
Where “and” joins values, the source holds several entries; their conditions need not be identical. Equal entries are not always repeated. Where two headings read alike, the source gives them in different places.

Tested on: human sebocytes
Assay: Sebum suppression: 14C-acetate label remaining in cultured human sebocytes
Type: cell-based
Conditions: for activity at 1 µM / activity at 10 µM / activity at 0.1 µM / activity at 50 µM / activity at 28 µM / activity at 280 µM: Homo sapiens; for activity at 1 µM / activity at 10 µM / activity at 0.1 µM / activity at 50 µM: read-out: % of Control; for sebum suppressive activity in the presence of a retinoid / combined with retinol: summary in words, combined with retinol versus compound alone
[1] = Experiment A, 1 μM test compound + 1 μM Retinol
[2] = Experiment A, 1 μM test compound + 10 μM Retinol
[3] = Experiment A, 1 μM test compound alone
[4] = Experiment A, 10 μM test compound + 1 μM Retinol
[5] = Experiment A, 10 μM test compound + 10 μM Retinol
[6] = Experiment A, 10 μM test compound alone
[7] = Experiment B, 0.1 μM test compound + 1 μM Retinol
[8] = Experiment B, 0.1 μM test compound + 10 μM Retinol
[9] = Experiment B, 0.1 μM test compound alone
[10] = Experiment B, 1 μM test compound + 1 μM Retinol
[11] = Experiment B, 1 μM test compound + 10 μM Retinol
[12] = Experiment B, 1 μM test compound alone
[13] = Experiment B, 10 μM test compound + 1 μM Retinol
[14] = Experiment B, 10 μM test compound + 10 μM Retinol
[15] = Experiment B, 10 μM test compound alone
[16] = Experiment A, 28 μM Phenol Red (positive control)
[17] = Experiment B, 280 μM Phenol Red (positive control)

Row | SMILES | activity at 1 µM [1] | activity at 1 µM [2] | activity at 1 µM [3] | activity at 10 µM [4] | activity at 10 µM [5] | activity at 10 µM [6] | activity at 0.1 µM [7] | activity at 0.1 µM [8] | activity at 0.1 µM [9] | activity at 1 µM [10] | activity at 1 µM [11] | activity at 1 µM [12] | activity at 10 µM [13] | activity at 10 µM [14] | activity at 10 µM [15] | sebum suppressive activity in the presence of a retinoid / combined with retinol | further results
1 | CC(CCC(=O)NC(=O)Nc1ccccc1Sc1ccccc1CO)C1CCC2=C3CCC4CC(O)CCC4(C)C3CC(O)C21C (centres unmarked) [Compound A] | 68.5% | 64.8% | 68.5% | 73.4% | 60.8% | 71% | 88.8% | 84.2% | 84.5% | 77.4% | 73.9% | 76.1% | 62.7% | 64.6% | 70.2% |  | 
2 | CC(CCC(=O)N1CCN(c2ccccc2)CC1)C1CCC2=C3CCC4CC(O)CCC4(C)C3CC(O)C21C (centres unmarked) [Compound B] | 80% | 66.2% | 88.1% | 8.7% | 7.2% | 25.6% | 81.7% | 84.8% | 87.9% | 69.1% | 69.9% | 68% | 0.3% | 0.3% | 0.3% |  | 
3 | Cc1cccc(O)c1NC(=O)OC1CC(C)CCC1C(C)C (centres unmarked) [Compound C] |  | 66.5% | 70.1% |  | 0.2% | 0.2% | 94% | 88.6% | 97.9% | 78.2% | 68.8% | 75.3% | 0.4% | 0.4% | 0.4% |  | 
4 | O=C(Nc1ccc(O)cc1)Nc1cccc(C(F)(F)F)c1 [Compound E] | 75.1% | 46.4% | 66.4% | 32% | 2.3% | 50% |  |  |  | 67.2% | 54.2% | 97.3% | 49.8% | 2.1% | 66.4% | improved sebum suppressive activity | 
5 | CCOC(=O)c1ccc(NC(=O)Nc2ccc(O)cc2)cc1 [Compound F] |  |  |  |  |  |  |  |  |  |  |  |  |  |  |  | improved sebum suppressive activity | % of Control [1]: 67.3%; % of Control [2]: 65.8%; % of Control [3]: 84.7%; % of Control [4]: 66.2%; % of Control [5]: 53.7%; % of Control [6]: 82.7%
6 | Cc1cccc(N2CCN(C(=O)CC3C=CC(CC(=O)N4CCN(c5cccc(C)c5)C(C)C4)C3)CC2C)c1 (centres unmarked) [Compound G] |  |  |  |  |  |  |  |  |  |  |  |  |  |  |  | improved sebum suppressive activity | activity at 10 µM (96 Well Plate, 10 μM test compound + 1 μM Retinol): 70.3%; activity at 10 µM (96 Well Plate, 10 μM test compound alone): 102%; activity at 50 µM (96 Well Plate, 50 μM test compound + 1 μM Retinol): 3.3%; activity at 50 µM (96 Well Plate, 50 μM test compound alone): 25.5%
7 | O=S1(=O)OC(c2ccc(O)cc2)(c2ccc(O)cc2)c2ccccc21 [Phenol Red, phenol red, reference compound] |  |  |  |  |  |  |  |  |  |  |  |  |  |  |  |  | % of Control [16]: 95.3%; % of Control [17]: 46.5% and 52.2% and 54.9% and 56.8%; activity at 28 µM [16]: 75.5%; activity at 280 µM (Experiment A, 280 μM Phenol Red (positive control)): 15.9%; activity at 28 µM (Experiment B, 28 μM Phenol Red (positive control)): 86.4%; activity at 280 µM [17]: 52.5%; activity at 280 µM (Table 7, 280 μM Phenol Red (positive control)): 13.2%
8 | CC1=C(/C=C/C(C)=C/C=C/C(C)=C/CO)C(C)(C)CCC1 [Retinol, retinol, reference compound] |  |  |  |  |  |  |  |  |  |  |  |  |  |  |  |  | activity at 10 µM (Experiment A, 10 μM Retinol alone): 105%; activity at 1 µM (Experiment B, 1 μM Retinol alone): 98.1%; activity at 10 µM (Experiment B, 10 μM Retinol alone): 106%; activity at 1 µM (Table 7, 1 μM Retinol alone): 98.1%; activity at 10 µM (Table 7, 10 μM Retinol alone): 106%
